Consider 14 compounds from US20100311677A1, “Active Ingredient Combinations Having Insecticidal and Acaricidal Properties” (Bayer CropScience AG, priority 2007, published 2010).

The test system of experiment [1] is Phaedon cochleariae. Nature of the experiment: Phaedon cochleariae larvae test (Example E), sprayed cabbage leaves. Particulars: for Kill in % after 6d / Kill in % after 2d: alone.
Experiment [2] concerns Myzus persicae. In words: Myzus persicae test (Example C), sprayed cabbage leaves. It counts as in vivo. The settings on record: alone.
Experiment [3] concerns Spodoptera frugiperda. In words: Spodoptera frugiperda larvae test (Example F), sprayed cabbage leaves. It counts as in vivo. The settings on record: alone. An excerpt:
Spodoptera frugiperda Larvae Test

Experiment [4] has as its system Tetranychus urticae. Nature of the experiment: Tetranychus urticae test (OP-resistant/spray treatment) (Example G), bean leaf disks. Type of experiment: in vivo. How it is done:
Tetranychus urticae Test (OP-Resistant/Spray Treatment)
After the desired period of time, the activity in % is determined.

In experiment [5] the test system is Bemisia tabaci. In words: Bemisia tabaci test (Example B), sprayed cotton leaves, larval stages. It counts as in vivo. The settings on record: 4 g/ha, alone.
Experiment [6] deals with Nilaparvata lugens. In words: Nilaparvata lugens test (Example D), sprayed rice plants. It counts as in vivo. The settings on record: 0.8 g/ha, alone.
Experiment [7] deals with Aphis gossypii. In words: Aphis gossypii test (Example A), sprayed cotton leaves. Type of experiment: in vivo. Particulars: 0.16 ppm, alone.
[8] abbreviates: Phaedon cochleariae, in Brassica oleracea, 144 h, read-out: Kill in % after 6d.
Setting [9] is: Spodoptera frugiperda, 144 h, after 6 d, read-out: Kill in % after 6d.
Where [10] appears, read: Myzus persicae, 144 h, after 6 d, read-out: Kill in % after 6d.
Where [11] appears, read: Tetranychus urticae, foliar, 144 h, active compound alone, 4 g/ha, after 6 d, read-out: Kill in % after 6 d.
Setting [12] is: Spodoptera frugiperda, 144 h, 0.8 g/ha, after 6 d, read-out: Kill in % after 6d.
The mark [13] stands for this setting: Myzus persicae, 144 h, 4 g/ha, after 6 d, read-out: Kill in % after 6d.
The mark [14] stands for this setting: Tetranychus urticae, foliar, 144 h, active compound alone, 20 g/ha, after 6 d, read-out: Kill in % after 6 d.

With `CC1(C)C(/C=C(\Cl)C(F)(F)F)C1C(=O)OC(C#N)c1cccc(Oc2ccccc2)c1` [L-cyhalothrin (12a), lambda-cyhalothrin], the pest or weed control at 0.16 g/ha in experiment [1] (setting [8]) is 0%. In experiment [2] (Myzus persicae, 144 h, 0.032 g/ha, after 6 d, read-out: Kill in % after 6d), the pest or weed control at 0.032 g/ha is 0%. The pest or weed control at 4 g/ha in experiment [3] (setting [9]) came out at 50%.
For the compound `CC1(C)C(C=C(Cl)Cl)C1C(=O)OC(C#N)c1cccc(Oc2ccccc2)c1` (stereo not drawn) [alpha-cypermethrin (2), alpha-cypermethrin], the pest or weed control at 0.8 g/ha worked out at 0% in experiment [4] (Tetranychus urticae, foliar, 144 h, active compound alone, 0.8 g/ha, after 6 d, read-out: Kill in % after 6 d) and 0% in experiment [1] (setting [8]). Besides, the pest or weed control at 0.16 g/ha in experiment [2] (setting [10]) is 0%. For the same compound, in experiment [3] (0.8 g/ha), the “Kill in % after 2d” value worked out at 33%.
For `CC(C)N1C(=O)N(c2ccccc2)CS/C1=N\C(C)(C)C` [buprofezin (42), buprofezin], the “Kill in % after 2d” value in experiment [4] (100 g/ha, alone, after 2 d) is 0%. Further, the “Kill in % after 10d” value in experiment [5] is reported as 30%. The pest or weed control at 100 g/ha in experiment [1] (setting [8]) turned out to be 0%. In addition, the “Kill in % after 1d” value in experiment [2] (4 g/ha, after 1 d) worked out at 0%. Besides, the “Kill in % after 6d” value in experiment [6] worked out at 10%.
With `Cc1cc(C(F)(C(F)(F)F)C(F)(F)F)ccc1NC(=O)c1cccc(Cl)c1C(=O)N[C@@H](C)CS(C)(=O)=O` [compound (55)], the pest or weed control at 4 g/ha in experiment [4] (setting [11]) worked out at 0%. Besides, the figures for the pest or weed control at 0.8 g/ha in experiment [1] (setting [8]) and in experiment [3] (setting [12]) were 0% and 50%, respectively. In addition, the pest or weed control at 0.16 g/ha in experiment [2] (setting [10]) amounted to 0%.
Consider `CC1(C)C(C=C(Cl)Cl)C1C(=O)OC(C#N)c1cccc(Oc2ccccc2)c1` (stereo not shown) [cypermethrin (5), cypermethrin], for which the pest or weed control at 4 g/ha was 0% in experiment [4] (setting [11]) and 67% in experiment [1] (setting [8]). For the same compound, the pest or weed control at 0.8 g/ha in experiment [3] (setting [12]) worked out at 17%.
Regarding `Cc1cc(C(F)(C(F)(F)F)C(F)(F)F)ccc1NC(=O)c1cccc(I)c1C(=O)NC(C)(C)CS(C)(=O)=O` [flubendiamide (54), flubendiamide], the “Kill in % after 6d” value in experiment [4] (active compound alone, 20 g/ha, after 6 d) was found to be 0%; in experiment [1] (20 g/ha), 0%; in experiment [2] (0.8 g/ha, after 6 d) it was 0%; in experiment [3] (0.8 g/ha, after 6 d) it was 0%.
Turning to `CC1(C)[C@H](/C=C(\Cl)C(F)(F)F)[C@@H]1C(=O)O[C@H](C#N)c1cccc(Oc2ccccc2)c1` [gamma-cyhalothrin (12b), gamma-cyhalothrin], the “Kill in % after 6d” value in experiment [7] stood at 0%. In experiment [3] (0.032 g/ha), the “Kill in % after 2d” value is given as 5%.
As for `COC(=O)N(C(=O)N1COC2(C(=O)OC)Cc3cc(Cl)ccc3C2=N1)c1ccc(OC(F)(F)F)cc1` (stereo not shown) [indoxacarb (94), indoxacarb], the pest or weed control at 100 g/ha in experiment [4] (Tetranychus urticae, foliar, 144 h, active compound alone, 100 g/ha, after 6 d, read-out: Kill in % after 6 d) was determined as 0%. In addition, the pest or weed control at 4 g/ha in experiment [2] (setting [13]) and in experiment [3] (setting [9]) was 0% in each case.
With `O=C(NC(=O)c1c(F)cccc1F)Nc1cc(Cl)c(OC(F)(F)C(F)C(F)(F)F)cc1Cl` (stereo not shown) [lufenuron (34), lufenuron], the pest or weed control at 20 g/ha in experiment [4] (setting [14]) amounted to 0%. In experiment [2] (Myzus persicae, 144 h, 0.8 g/ha, after 6 d, read-out: Kill in % after 6d), the pest or weed control at 0.8 g/ha worked out at 0%. The “Kill in % after 2d” value in experiment [3] (100 g/ha) turned out to be 0%.
Regarding `COP(N)(=O)SC` (stereo not shown) [methamidophos (113), methamidophos], the pest or weed control at 20 g/ha in experiment [4] (setting [14]) turned out to be 0%. In addition, the “Kill in % after 2d” value was 0% in experiment [1] (100 g/ha) and 67% in experiment [3] (100 g/ha). Moreover, the pest or weed control at 4 g/ha in experiment [2] (setting [13]) came out at 0%.
Regarding `CCOC(=O)OC1=C(c2cc(C)ccc2C)C(=O)N[C@]12CC[C@@H](OC)CC2` [spirotetramat (98), spirotetramat], the pest or weed control at 4 g/ha in experiment [4] (setting [11]) is 50%. The pest or weed control at 20 g/ha in experiment [1] (setting [8]) is 50%; in experiment [3] (Spodoptera frugiperda, 144 h, 20 g/ha, after 6 d, read-out: Kill in % after 6d) it was 0%.
Consider `CS/C(C)=N/OC(=O)N(C)SN(C)C(=O)O/N=C(\C)SC` [thiodicarb (111), thiodicarb], for which, in experiment [4] (setting [14]), the pest or weed control at 20 g/ha was 0%. Further, the pest or weed control at 100 g/ha in experiment [1] (setting [8]) was 0%. Besides, in experiment [3] (setting [9]), the pest or weed control at 4 g/ha is 67%.
As for `O=C(NC(=O)c1ccccc1Cl)Nc1ccc(OC(F)(F)F)cc1` [triflumuron (36), triflumuron], the pest or weed control at 20 g/ha in experiment [4] (setting [14]) turned out to be 0%. Moreover, the “Kill in % after 2d” value in experiment [1] (20 g/ha) stood at 17%. Moreover, the pest or weed control at 4 g/ha in experiment [2] (setting [13]) is 0%. For the same compound, in experiment [3] (Spodoptera frugiperda, 144 h, 0.16 g/ha, after 6 d, read-out: Kill in % after 6d), the pest or weed control at 0.16 g/ha was 0%.
On to spinosad [spinosad (79)], for which the “Kill in % after 6d” value in experiment [4] (active compound alone, 4 g/ha, after 6 d) is reported as 80%; in experiment [1] (0.8 g/ha), 0%; in experiment [2] (0.8 g/ha, after 6 d) it was 0%. In addition, the “Kill in % after 2d” value in experiment [3] (0.8 g/ha) worked out at 0%.
